The record followed here is patent US8110577B2, “Histone deacetylase inhibitors” (Queen Mary & Westfield College, priority 2006, dated 2012).

Experiment [1] has as its target Partially purified HDAC enzyme (liver prep). Briefly: HDAC activity assay (MAL deacetylation, HPLC) with partially purified liver HDAC. In kind it is biochemical, rat. From the text:
The activity of compounds as inhibitors of histone deacetylase was investigated using a modified procedure based on a rapid in vitro HDAC activity assay (HDAC mediated deacetylation of an Ω-acetylated lysine (MAL)) as described by Hoffman et al in Nucl. Acids. Res. 27 2057-2058 (1999).
The HDAC substrate N-(-4-methyl-7-coumarinyl)-N-α-(tert-butyloxy-carbonyl)-N-Ω abbreviated as MAL was synthesised as described (Hoffman et al 1999). HDAC inhibitors and substrate (MAL) were made up in Hepes buffer (50 mM, pH 7.4). Partially purified HDAC enzyme (liver prep, 100 μL), HDAC inhibitor or Hepes buffer (100 μl), substrate (MAL, 100 μL 5 μg/mL) and assay buffer (100 μL, tris-HCl (10 mM), NaCl (10 mM), MgCl2 (15 mM), EGTA (0.1 mM), 10% (v/v) glycerol, and mercaptoethanol (0.007%)) were incubated at 37° C. for 60 minutes. The reaction was terminated with 100 μl acetonitrile, and MAL and the deacetylated product (ML) were determined in the supernatant.
(§1) Chromatographic separation of MAL and ML was carried out using a 15 cm Apex ODS […] column with acetonitrile/distilled water (40:60), 2% trifluoracetic acid (TFA) v/v mobile phase at a flow rate of 1.2 ml/minute. MAL and ML were quantified by fluorescence detection at excitation/emission wavelengths of 330/395 nm.
(§2) The activity of each inhibitor was assessed at a minimum of 5 non-zero concentrations. MAL and ML peak heights were used to derive the percentage MAL in the mixture as the ration of MAL: MAL+ML.
HDAC inhibitory activity against cell-free HDACs isolated from rat liver was determined using the HPLC method.

For experiment [2], the system named is HDAC activity in intact CEM cells. In words: Whole cell HDAC activity assay (MAL) in intact CEM cells. The conditions noted are these: FIG. 2, read-out: HDAC inhibitory values in intact CEM cells. The class given is cell-based. On the procedure: Cells were then rapidly washed at 4° C., lysed by sonication, the reaction stopped with acetonitrile, and MAL and the deacetylated product determined in the supernatant by rapid HPLC.
as §1, §2

The subject of experiment [3] is CEM (leukaemic) cells. Briefly: Cell viability / cytotoxic activity, ATP Vialite assay, CEM cells. The conditions noted are these: Homo sapiens, CCRF-CEM. In kind it is cell-based. On the procedure: (§3) EC50 values for percentage viability (3-day exposure) were determined using 2 different methods, trypan blue staining and an ATP assay. Trypan blue staining relies on the ability of healthy cells with intact membranes to exclude dyes. As cells start to undergo programmed cell death membrane integrity becomes compromised allowing dye entry. The % cells staining positive for trypan blue relative to the total cell number therefore reflects % cell viability (% viability). Non-viable cells also lose the ability to regenerate ATP. A specific ATP assay procedure using a 96-well plate-based approach (Vialite assay, Cambrex, UK) also measures cell viability, expressed relative to the ATP value in the control (untreated) cell population.
Effects against viable cell number have been determined using the ATP Vialite kit method (Cambrex, UK).

Experiment [4] deals with HCT116 (colorectal cancer) cells. In words: Cell viability, 3-day exposure, HCT116 cells. The class given is cell-based. To be noted: Homo sapiens, HCT-116, 72 h, 3 day incubation, FIG. 3. On the procedure: as §3
Experiment [5] relates to MCF7 (breast cancer) cells. In words: Cell viability, 3-day exposure, MCF7 cells. The class given is cell-based. To be noted: Homo sapiens, 72 h, 3 day incubation, FIG. 3. On the procedure: as §3
Experiment [6] has as its system panel of 8 lymphoma cell lines. Briefly: Cell viability (ATP) in a panel of 8 lymphoma cell lines. The conditions noted are these: ATP endpoint assay, read-out: EC50 values (range over the panel). The class given is cell-based. On the procedure: as §3
The subject of experiment [7] is acetylated histone H3 in MCF-7 cells. Briefly: Histone H3 acetylation in MCF7 cells (protein blot). In kind it is cell-based. The conditions noted are these: for histone H3 acetylation with time: FIG. 5; for change in histone H3 acetylation: 2 hour exposure to increasing concentrations, FIG. 4. On the procedure:
The effect of the compounds on the acetylation of histone H3 was investigated in MCF-7 cells. Briefly cells were treated with a range of concentration of specific inhibitor or different exposure durations. Cells were then lysed and the proteins resolved by polyacrylamide electrophoresis prior to blotting onto a nitrocellulose membrane and staining with an antibody specific for the protein under study (acetylated histone H3) and a control protein (β-actin). As HDAC inhibitors reduce deacetylase activity, treatment of intact cells results in the accumulation of acetylated histones.

Experiment [8] deals with MCF7 (breast cancer) tumours. Briefly: MCF7 xenograft study in nude mice. In kind it is in vivo. To be noted: 15 day treatment, FIG. 6. On the procedure:
Xenograft studies were carried out with MCF7 cells implanted under the skin on the flank of female nude mice (5-8 weeks of age). […] Animals also received a 2 mg oestrogen pellet as an implant on the day of tumour implantation. Tumour volumes were determined from measurements of 2 diameters carried out every other day out to day 15 of treatment.

Experiment [9] deals with Cell-free (CEM cells) HDAC. Briefly: Cell-free (CEM cells) HDAC inhibitory activity, fluorescent commercial kit (Upstate Cell Signaling). In kind it is biochemical. The text has this:
HDAC inhibitory activity has also been determined using a fluorescent commercial kit method (Upstate Cell Signaling).

[10] abbreviates: cell-free HDACs isolated from rat liver, HPLC method, different liver preparation than Example 1, read-out: HDAC inhibitory IC50.

Structures are written as SMILES. Like-named read-outs stand apart in the source and are kept apart here.

For the compound `O=C(CCCCCC(C(=O)Nc1ccccc1)C(=O)Nc1ccccc1)NO` [UCL67022, 2-Phenylcarbamoyl-octanedioic acid 8-hydroxyamide 1-phenylamide], the IC50 in [1] (setting [10]) was 40 ± 9 nM; in [1] (partially purified rat liver preparation, Example 1, FIG. 1, read-out: HDAC inhibitory activity IC50), 50 ± 10 nM; in experiment [2] it was 110 ± 20 nM; in experiment [3] (cytotoxic activity against CEM (leukaemic) cells, viable cell number, ATP Vialite kit, read-out: HDAC inhibitory IC50) it was 98 ± 42 nM; in experiment [9], 86 ± 7 nM. In addition, the concentration giving a half-maximal response (EC50) was 60 nM in [3] (72 h, CEM cells, 3 day incubation, FIG. 3); 70 nM in [4]; 130 nM in experiment [5]; 20 to 80 nM in experiment [6]. Further, the “histone H3 acetylation with time” value in [7] (0.3 μM UCL67022, time periods up to 48 hours) was “acetylation continued to increase out to 24 hours, and was still substantially higher than baseline at 48 hours”. In addition, the “change in histone H3 acetylation” value in [7] is “marked change in histone H3 acetylation at concentrations as low as 0.1 μM”. For the same compound, the “effect on tumour growth” value in experiment [8] (daily IP dose levels 12.5·M and 6.25·M) is “appeared to have a clear effect on tumour growth”.

Turning to `O=C(CCCCCCC(=O)Nc1ccccc1)NO` [SAHA, suberoylanilide hydroxamic acid, reference compound], in [7] (3 μM SAHA, time periods up to 48 hours), the “histone H3 acetylation with time” value was “acetylation increased up to 6 hours, but had decreased to baseline levels by 24 hours”. Further, the “change in histone H3 acetylation” value in [7] is recorded as “relatively minor changes in acetylation state at concentrations <1.0 μM”. Further, the “effect on tumour growth” value in [8] (daily IP 25 mg/kg in DMSO) was “not very different to treatment with the DMSO vehicle alone”.

Regarding `Cc1nsc(C(CCCCCC(N)=S)C(=O)Nc2ccccc2)n1` (stereo not drawn) [67022,20, 2-(3-Methyl-[1,2,4]thiadiazol-5-yl)-7-thiocarbamoylheptanoic Acid Phenylamide], the IC50 in experiment [1] (setting [10]) was 318000 nM.

Consider `Cc1nsc(C(CCCCCC(=N)NO)C(=O)Nc2ccccc2)n1` (stereo not drawn) [67022,19, 7-(N-Hydroxycarbamimidoyl)-2(3-methyl[1,2,4]thiadiazol-5-yl)heptanoic Acid Phenylamide], for which the IC50 in [1] (setting [10]) came out at 44600 ± 5600 nM; in experiment [9], 46100 ± 12000 nM.
